# Test results: PMC5218480 (PLoS ONE, 2017)
# Tested on: MV-4-11 cells
# Test: Gene expression microarray analysis (Affymetrix PrimeView) and GSEA
# Assay type: cell-based, human
# Set-up: RFU PODN (11730768_x_at) / Fold change /veh PODN (11730768_x_at) / RFU LINC00158 (11744669_a_at) / Fold change /veh LINC00158 (11744669_a_at) / RFU DUSP10 (11751237_a_at) / Fold change /veh DUSP10 (11751237_a_at) / RFU ID3 (11757404_x_at) / Fold change /veh ID3 (11757404_x_at) / RFU PLEKHG5 (11737974_s_at) / Fold change /veh PLEKHG5 (11737974_s_at) / RFU LRRC4B (11730491_at) / Fold change /veh LRRC4B (11730491_at) / RFU GIMAP4 (11747438_a_at) / Fold change /veh GIMAP4 (11747438_a_at) / RFU KRT8 (11758183_x_at) / Fold change /veh KRT8 (11758183_x_at) / RFU CNN1 (11734310_a_at) / Fold change /veh CNN1 (11734310_a_at) / RFU VPS37D (11726825_at) / Fold change /veh VPS37D (11726825_at) / RFU C10orf10 (11716522_x_at) / Fold change /veh C10orf10 (11716522_x_at) / RFU KIR2DL2 /// KIR2DL4 /// KIR2DL5A /// KIR2DL5B /// KIR2DS1 /// KIR2DS2 /// KIR2DS3 /// KIR2DS4 /// KIR3DL3 /// KIR3DL3 /// KIR3DS1 (11738374_at) / Fold change /veh KIR2DL2 /// KIR2DL4 /// KIR2DL5A /// KIR2DL5B /// KIR2DS1 /// KIR2DS2 /// KIR2DS3 /// KIR2DS4 /// KIR3DL3 /// KIR3DL3 /// KIR3DS1 (11738374_at) / RFU C1QL1 (11718748_at) / Fold change /veh C1QL1 (11718748_at) / RFU TMPRSS4 (11747572_a_at) / Fold change /veh TMPRSS4 (11747572_a_at) / RFU HAMP (11756126_x_at) / Fold change /veh HAMP (11756126_x_at) / RFU RNFT2 (11725882_a_at) / Fold change /veh RNFT2 (11725882_a_at) / RFU NR4A2 (11747474_a_at) / Fold change /veh NR4A2 (11747474_a_at) / RFU ABCC12 (11746883_a_at) / Fold change /veh ABCC12 (11746883_a_at) / RFU TMEM136 (11760407_x_at) / Fold change /veh TMEM136 (11760407_x_at) / RFU CLDN22 /// WWC2 (11732394_at) / Fold change /veh CLDN22 /// WWC2 (11732394_at) / RFU HLA-DPB1 (11760878_x_at) / Fold change /veh HLA-DPB1 (11760878_x_at) / RFU SPINT1 (11716480_a_at) / Fold change /veh SPINT1 (11716480_a_at) / RFU GAP43 (11754022_s_at) / Fold change /veh GAP43 (11754022_s_at) / RFU A4GNT (11735810_at) / Fold change /veh A4GNT (11735810_at) / RFU PRB3 (11715151_x_at) / Fold change /veh PRB3 (11715151_x_at) / RFU TUBB4B (11761932_at) / Fold change /veh TUBB4B (11761932_at) / RFU CAPN14 (11732068_a_at) / Fold change /veh CAPN14 (11732068_a_at) / RFU TMCC2 (11721928_a_at) / Fold change /veh TMCC2 (11721928_a_at) / RFU IRGQ (11745062_a_at) / Fold change /veh IRGQ (11745062_a_at) / RFU FAM174B (11720279_a_at) / Fold change /veh FAM174B (11720279_a_at) / RFU TMPRSS4 (11748680_a_at) / Fold change /veh TMPRSS4 (11748680_a_at) / RFU FAM212B (11763350_a_at) / Fold change /veh FAM212B (11763350_a_at) / RFU PLEKHG5 (11743358_a_at) / Fold change /veh PLEKHG5 (11743358_a_at) / RFU ZSCAN30 (11745921_a_at) / Fold change /veh ZSCAN30 (11745921_a_at) / RFU CMKLR1 (11741424_a_at) / Fold change /veh CMKLR1 (11741424_a_at) / RFU LOC101060620 /// MAPK8IP1 (11723275_at) / Fold change /veh LOC101060620 /// MAPK8IP1 (11723275_at) / RFU SPTSSB (11747773_x_at) / Fold change /veh SPTSSB (11747773_x_at) / RFU PRSS12 (11739890_at) / Fold change /veh PRSS12 (11739890_at) / RFU BIN1 (11741810_x_at) / Fold change /veh BIN1 (11741810_x_at) / RFU WNT11 (11732464_a_at) / Fold change /veh WNT11 (11732464_a_at) / RFU C10orf10 (11716521_a_at) / Fold change /veh C10orf10 (11716521_a_at) / RFU C5orf56 (11738089_at) / Fold change /veh C5orf56 (11738089_at) / RFU CYB561 (11721691_x_at) / Fold change /veh CYB561 (11721691_x_at) / RFU ANKRD19P (11752326_a_at) / Fold change /veh ANKRD19P (11752326_a_at) / RFU OR2T12 /// OR2T33 /// OR2T8 (11738714_s_at) / Fold change /veh OR2T12 /// OR2T33 /// OR2T8 (11738714_s_at) / RFU VCAN (11748164_a_at) / Fold change /veh VCAN (11748164_a_at) / RFU JSRP1 (11732532_at) / Fold change /veh JSRP1 (11732532_at) / RFU KRTAP10-11 (11738290_x_at) / Fold change /veh KRTAP10-11 (11738290_x_at) / RFU MYO3A (11730013_a_at) / Fold change /veh MYO3A (11730013_a_at) / RFU EBF3 (11725865_a_at) / Fold change /veh EBF3 (11725865_a_at) / RFU CAMK2N1 (11719241_x_at) / Fold change /veh CAMK2N1 (11719241_x_at) / RFU C5orf56 (11738088_a_at) / Fold change /veh C5orf56 (11738088_a_at) / RFU OLFML3 (11715873_a_at) / Fold change /veh OLFML3 (11715873_a_at) / RFU LOC100653217 /// NTM (11731650_a_at) / Fold change /veh LOC100653217 /// NTM (11731650_a_at) / RFU MAPK11 (11762145_a_at) / Fold change /veh MAPK11 (11762145_a_at) / RFU FIZ1 (11724087_x_at) / Fold change /veh FIZ1 (11724087_x_at) / RFU OASL (11726364_x_at) / Fold change /veh OASL (11726364_x_at) / RFU SOX15 (11748057_x_at) / Fold change /veh SOX15 (11748057_x_at) / RFU CD79A (11719716_a_at) / Fold change /veh CD79A (11719716_a_at) / RFU HIST1H1D (11736915_at) / Fold change /veh HIST1H1D (11736915_at) / RFU CASKIN2 (11723855_a_at) / Fold change /veh CASKIN2 (11723855_a_at) / RFU LOC730098 (11760151_x_at) / Fold change /veh LOC730098 (11760151_x_at) / RFU OR4N2 (11742367_at) / Fold change /veh OR4N2 (11742367_at) / RFU PRRT2 (11749266_a_at) / Fold change /veh PRRT2 (11749266_a_at) / RFU SNX32 (11753110_a_at) / Fold change /veh SNX32 (11753110_a_at) / RFU CDHR5 (11726645_a_at) / Fold change /veh CDHR5 (11726645_a_at) / RFU RCAN1 (11760418_a_at) / Fold change /veh RCAN1 (11760418_a_at) / RFU FAM167A (11723789_a_at) / Fold change /veh FAM167A (11723789_a_at) / RFU FAM26E (11764081_at) / Fold change /veh FAM26E (11764081_at) / RFU ISYNA1 (11749810_s_at) / Fold change /veh ISYNA1 (11749810_s_at) / RFU ACY1 (11761880_at) / Fold change /veh ACY1 (11761880_at) / RFU 11764098_at / Fold change /veh 11764098_at / RFU SAMD14 (11745864_x_at) / Fold change /veh SAMD14 (11745864_x_at) / RFU NPB (11741838_a_at) / Fold change /veh NPB (11741838_a_at) / RFU TMPRSS6 (11731388_a_at) / Fold change /veh TMPRSS6 (11731388_a_at) / RFU KRTAP10-2 (11738614_at) / Fold change /veh KRTAP10-2 (11738614_at) / RFU ARHGAP8 /// PRR5-ARHGAP8 (11727945_x_at) / Fold change /veh ARHGAP8 /// PRR5-ARHGAP8 (11727945_x_at) / RFU KRTAP5-7 /// NADSYN1 (11734609_at) / Fold change /veh KRTAP5-7 /// NADSYN1 (11734609_at) / RFU RASL12 (11751679_a_at) / Fold change /veh RASL12 (11751679_a_at) / RFU CDKN2B (11736163_a_at) / Fold change /veh CDKN2B (11736163_a_at) / RFU PRF1 (11729649_at) / Fold change /veh PRF1 (11729649_at) / RFU, ZNF638 /// ZNF638-IT1 / Fold change vs veh, ZNF638 /// ZNF638-IT1 / RFU, PANK3 / Fold change vs veh, PANK3 / RFU, SH3YL1 / Fold change vs veh, SH3YL1 / RFU, ZEB2 / Fold change vs veh, ZEB2 / RFU, NRIP1 / Fold change vs veh, NRIP1 / RFU, PTTG1IP / Fold change vs veh, PTTG1IP / RFU, CAPN2 / Fold change vs veh, CAPN2 / RFU, MED14 / Fold change vs veh, MED14 / RFU, SNORA58 / Fold change vs veh, SNORA58 / RFU, C1orf63 / Fold change vs veh, C1orf63 / RFU, LRRFIP1 / Fold change vs veh, LRRFIP1 / RFU, NDUFAF7 / Fold change vs veh, NDUFAF7 / RFU, SLC12A2 / Fold change vs veh, SLC12A2 / RFU, IBTK / Fold change vs veh, IBTK / RFU, ESF1 / Fold change vs veh, ESF1 / Fold change vs veh, TMEM50B / RFU, TAOK1 / Fold change vs veh, TAOK1 / RFU, ACBD3 / Fold change vs veh, ACBD3 / RFU, TMA16 / Fold change vs veh, TMA16 / RFU, RWDD3 / Fold change vs veh, RWDD3 / RFU, BCAT1 / Fold change vs veh, BCAT1 / RFU, EDEM3 / Fold change vs veh, EDEM3 / RFU, TMEM33 / Fold change vs veh, TMEM33 / RFU, WDR75 / Fold change vs veh, WDR75 / RFU, AHCTF1 / Fold change vs veh, AHCTF1 / RFU, TFRC / Fold change vs veh, TFRC / RFU, ZDHHC17 / Fold change vs veh, ZDHHC17 / RFU, NOM1 / Fold change vs veh, NOM1 / RFU, ARL8B / Fold change vs veh, ARL8B / RFU, ZBTB11 / Fold change vs veh, ZBTB11 / RFU, TAMM41 / Fold change vs veh, TAMM41 / RFU, KIAA1704 /// LOC100996395 / Fold change vs veh, KIAA1704 /// LOC100996395 / RFU, ING1 / Fold change vs veh, ING1 / RFU, TRMT61B / Fold change vs veh, TRMT61B / RFU, FUBP3 / Fold change vs veh, FUBP3 / RFU, TP53 / Fold change vs veh, TP53 / RFU, TNKS2 / Fold change vs veh, TNKS2 / RFU, ZFP14 / Fold change vs veh, ZFP14 / RFU, ACTR2 / Fold change vs veh, ACTR2 / RFU, PPP3R1 / Fold change vs veh, PPP3R1 / RFU, PIK3R1 / Fold change vs veh, PIK3R1 / RFU, HNRNPA1 / Fold change vs veh, HNRNPA1 / RFU, RNF170 / Fold change vs veh, RNF170 / RFU, ZNF28 / Fold change vs veh, ZNF28 / RFU, RNGTT / Fold change vs veh, RNGTT / RFU, OGT / Fold change vs veh, OGT / RFU, BRD1 / Fold change vs veh, BRD1 / RFU, MARS / Fold change vs veh, MARS / RFU, ZNF655 / Fold change vs veh, ZNF655 / RFU, FAHD1 / Fold change vs veh, FAHD1 / RFU, BDP1 / Fold change vs veh, BDP1 / RFU, LRRCC1 / Fold change vs veh, LRRCC1 / RFU, ARID1A / Fold change vs veh, ARID1A / RFU, ZNF146 / Fold change vs veh, ZNF146 / RFU, ZNF330 / Fold change vs veh, ZNF330 / RFU, GPN3 / Fold change vs veh, GPN3 / RFU, C9orf123 / Fold change vs veh, C9orf123 / RFU, N4BP2L2 / Fold change vs veh, N4BP2L2 / RFU, ARFIP1 / Fold change vs veh, ARFIP1 / RFU, FAM179B / Fold change vs veh, FAM179B / RFU, BCL10 / Fold change vs veh, BCL10 / RFU, UHRF1BP1L / Fold change vs veh, UHRF1BP1L / RFU, BET1 / Fold change vs veh, BET1 / RFU, CNOT2 / Fold change vs veh, CNOT2 / RFU, ZNF268 / Fold change vs veh, ZNF268 / Fold change vs veh, ZNF507 / RFU, DGCR2 / Fold change vs veh, DGCR2 / RFU, WDSUB1 / Fold change vs veh, WDSUB1 / Fold change vs veh, HSP90B1 /// MIR3652 / RFU, ADSS / Fold change vs veh, ADSS / RFU, GK / Fold change vs veh, GK / RFU, ZNF148 / Fold change vs veh, ZNF148 / RFU, TAF9 / Fold change vs veh, TAF9 / RFU, SLC1A5 / Fold change vs veh, SLC1A5 / RFU, SLMO2 / Fold change vs veh, SLMO2 / RFU, ABCC4 / Fold change vs veh, ABCC4 / RFU, LOC101060439 /// RAP1B / Fold change vs veh, LOC101060439 /// RAP1B / RFU, RFX7 / Fold change vs veh, RFX7 / RFU, GTPBP10 / Fold change vs veh, GTPBP10 / RFU, CNEP1R1 / Fold change vs veh, CNEP1R1 / RFU, BIVM-ERCC5 /// ERCC5 / Fold change vs veh, BIVM-ERCC5 /// ERCC5 / RFU, ILF3 / Fold change vs veh, ILF3 / RFU 11762660_at / Fold change /veh 11762660_at / RFU VCAN (11757783_s_at) / Fold change /veh VCAN (11757783_s_at) / RFU DDX43 (11728927_at) / Fold change /veh DDX43 (11728927_at) / RFU KRT8 (11758188_x_at) / Fold change /veh KRT8 (11758188_x_at) / RFU NKD1 (11759106_at) / Fold change /veh NKD1 (11759106_at) / RFU SRD5A1 (11742802_a_at) / Fold change /veh SRD5A1 (11742802_a_at) / RFU TPSAB1 /// TPSB2 (11721975_s_at) / Fold change /veh TPSAB1 /// TPSB2 (11721975_s_at) / RFU GSTM3 (11746129_a_at) / Fold change /veh GSTM3 (11746129_a_at) / RFU IL23R (11737362_x_at) / Fold change /veh IL23R (11737362_x_at) / RFU TMEM51 (11727254_a_at) / Fold change /veh TMEM51 (11727254_a_at) / RFU PIWIL2 (11732686_x_at) / Fold change /veh PIWIL2 (11732686_x_at) / RFU ORM1 (11744905_x_at) / Fold change /veh ORM1 (11744905_x_at) / RFU CCDC152 (11743942_at) / Fold change /veh CCDC152 (11743942_at) / RFU ECM1 (11717891_a_at) / Fold change /veh ECM1 (11717891_a_at) / RFU IL23R (11748794_a_at) / Fold change /veh IL23R (11748794_a_at) / RFU TNFAIP8L3 (11732012_x_at) / Fold change /veh TNFAIP8L3 (11732012_x_at) / RFU MBOAT4 (11741988_at) / Fold change /veh MBOAT4 (11741988_at) / RFU 11764193_at / Fold change /veh 11764193_at / RFU TMEM53 (11763286_at) / Fold change /veh TMEM53 (11763286_at) / RFU MAGEB2 (11727129_at) / Fold change /veh MAGEB2 (11727129_at) / RFU TMEM200A (11744735_a_at) / Fold change /veh TMEM200A (11744735_a_at) / RFU CCDC152 (11751479_a_at) / Fold change /veh CCDC152 (11751479_a_at) / RFU FAM211A (11726209_a_at) / Fold change /veh FAM211A (11726209_a_at) / RFU RGS16 (11746705_a_at) / Fold change /veh RGS16 (11746705_a_at) / RFU VCAN (11755009_s_at) / Fold change /veh VCAN (11755009_s_at) / RFU RHOB (11743442_s_at) / Fold change /veh RHOB (11743442_s_at) / RFU RGS16 (11720943_a_at) / Fold change /veh RGS16 (11720943_a_at) / RFU RGS16 (11720944_at) / Fold change /veh RGS16 (11720944_at) / RFU, VPS4B / Fold change vs veh, VPS4B / RFU, CREB1 / Fold change vs veh, CREB1 / RFU, DNAJC13 / Fold change vs veh, DNAJC13 / RFU, GNAQ / Fold change vs veh, GNAQ / RFU, CDK5R1 / Fold change vs veh, CDK5R1 / RFU, ZRANB3 / Fold change vs veh, ZRANB3 / RFU, CUL4A / Fold change vs veh, CUL4A / RFU, CCNY / Fold change vs veh, CCNY / RFU, UFL1 / Fold change vs veh, UFL1 / RFU, COG3 / Fold change vs veh, COG3 / RFU, DIAPH2 / Fold change vs veh, DIAPH2 / RFU, SKA2 / Fold change vs veh, SKA2 / RFU, AFF3 / Fold change vs veh, AFF3 / RFU, LMF1 / Fold change vs veh, LMF1 / RFU, IPO11 / Fold change vs veh, IPO11 / RFU, DFFB / Fold change vs veh, DFFB / RFU, FOXP1 / Fold change vs veh, FOXP1 / RFU, CARD8 / Fold change vs veh, CARD8 / RFU, STRN3 / Fold change vs veh, STRN3 / RFU, ADK / Fold change vs veh, ADK / RFU, RASSF2 / Fold change vs veh, RASSF2 / RFU, WIPF1 / Fold change vs veh, WIPF1 / RFU, LARP1B / Fold change vs veh, LARP1B / RFU, RASA1 / Fold change vs veh, RASA1 / RFU, RB1 / Fold change vs veh, RB1 / RFU, PPFIA1 / Fold change vs veh, PPFIA1 / RFU, MAT2A / Fold change vs veh, MAT2A / RFU, CCT5 / Fold change vs veh, CCT5 / RFU, WDR92 / Fold change vs veh, WDR92 / RFU, CUX1 / Fold change vs veh, CUX1 / RFU, TTC7A / Fold change vs veh, TTC7A / RFU, TMEM135 / Fold change vs veh, TMEM135 / RFU, DEPTOR / Fold change vs veh, DEPTOR / RFU, CPM / Fold change vs veh, CPM / RFU, DNAJB6 / Fold change vs veh, DNAJB6 / RFU, CACNA2D3 / Fold change vs veh, CACNA2D3 / RFU, DTX4 / Fold change vs veh, DTX4 / RFU, TFCP2 / Fold change vs veh, TFCP2 / RFU, GMCL1 /// GMCL1P1 / Fold change vs veh, GMCL1 /// GMCL1P1 / RFU, AEBP2 / Fold change vs veh, AEBP2 / RFU, SNHG1 /// SNORD22 /// SNORD25 /// SNORD26 /// SNORD27 /// SNORD28 /// SNORD29 /// SNORD31 / Fold change vs veh, SNHG1 /// SNORD22 /// SNORD25 /// SNORD26 /// SNORD27 /// SNORD28 /// SNORD29 /// SNORD31 / Fold change (Aza/veh), C12orf56 (ProbeSet 11735607_a_at) / Fold change (ACY-1035/veh), C12orf56 (ProbeSet 11735607_a_at) / Fold change (Aza/veh), FGFR1OP (ProbeSet 11751329_s_at) / Fold change (ACY-1035/veh), FGFR1OP (ProbeSet 11751329_s_at) / Fold change (Aza/veh), VPS36 (ProbeSet 11739960_a_at) / Fold change (ACY-1035/veh), VPS36 (ProbeSet 11739960_a_at) / RFU SYPL1 (11715823_x_at) / Fold change /veh SYPL1 (11715823_x_at) / RFU IGFBP7 (11715501_s_at) / Fold change /veh IGFBP7 (11715501_s_at) / RFU REEP3 (11722064_at) / Fold change /veh REEP3 (11722064_at) / RFU IGLL1 (11728026_x_at) / Fold change /veh IGLL1 (11728026_x_at): dose or concentration left out as unconfirmed
# Conditions: MV-4-11 cells, 48 hours
smiles,measurement,value
Nc1ccc(-c2cccs2)cc1NC(=O)c1ccc2c(c1)cc(C1CC1)n2CCN1CCOCC1 [ACY-1035],RFU 11762660_at,11.56 RFU
